Reference: patent US9351963B2, “Defensin-like molecules as novel antimicrobial agents” (UNIVERSITY OF MARYLAND, BALTIMORE, priority 2010, dated 2016)

What was measured:
S. aureus ATCC 29213 [1] = assay: Murine peritoneal sepsis model; assay type: in vivo, C57BL/6J mice; conditions: 5 mg/kg intraperitoneally, preliminary experiments (not shown)
[2] = tested on: Staphylococcus aureus ATCC 29213; assay: 96-well turbidimetric antibacterial killing assay, S. aureus; assay type: cell-based
Experimental: The antibacterial activity of defensin mimetics against Staphylococcus aureus ATCC 29213 and Escherichia coli 25922 was carried out in a 96-well turbidimetric assay essentially as described (Ericksen, B., Wu, Z., Lu, W., and Lehrer, R. I. (2005) Antimicrob Agents Chemother 49, 269-275) with the following modifications: compounds were exposed for 30 min to […] prior to addition of […] in 10 mM phosphate buffer containing 5% DMSO. Bacterial growth was monitored for 12 hours and data were analyzed as described (Ericksen, et al). Determination of MICs was performed by Micromyx, LLC (Kalamazoo, Mich.) according to CLSI standards (CLSI. (2009) Methods for Dilution Antimicrobial Susceptibility Tests for Bacteria That Grow Aerobically; Approved Standard—Eighth Edition.)

S. aureus ATCC 29213 [3] = assay: Murine peritoneal sepsis model; assay type: in vivo, C57BL/6J mice
Experimental: Adult C57BL/6J mice (˜18 grams, 8-10 weeks old) were used for all experiments. Mice were obtained from the Jackson Laboratory (Bar Harbour, Me., USA) and housed in the IHV SPC animal core facility. Mice were fed standard chow (Harlan Laboratories) and water ad libitum. To assess the protective potency of defensin mimetic BAS00127538, groups of 5 mice were inoculated intraperitoneally ˜10^7 CFU/mL of S. aureus ATCC 29213 in 500 μL saline solution/25% DMSO plus 4.5% (w/v) porcine gastric mucin (Sigma Chemical Co., St Louis, Mo.). Infected animals (n=5) were subsequently treated by intra-peritoneal injection 1 and 4 hours post-infection with 2.5 mg/kg of compound in 100 μL sterile saline solution plus 25% DMSO (V/V), vancomycin/lysostaphin (5 mg/kg, saline solution/25% DMSO) or vehicle (saline solution/25% DMSO) as positive and negative controls respectively. Animals were closely observed during a period of 24 hours and mice that show signs of severe sepsis were humanely euthanized. Blood samples were collected by retro-orbital puncture at the indicated intervals post-infection using lithium-heparin polystyrene tubes to prevent coagulation. Spleens were harvested aseptically, weighed and homogenized in 500 μl of sterile saline solution using an IKA T10 basic disperser (IKA, Wilmington N.C.). Whole blood samples and spleen homogenates were serially diluted and plated onto LB agar plates. Bacterial counts were determined following 24 h incubation at 37° C. and expressed as CFU per milliliter for blood and CFU per gram for spleen.
Next, a murine model for sepsis was established to evaluate the efficacy of the lead defensin mimetics as antibiotic agents in vivo. […] Mice (n=5) were inoculated intraperitoneally with S. aureus 29213 and treated 1 h and 4 h post-infection with compound BAS00127538 at 2.5 mg/kg intraperitoneally Animals were monitored for survival and blood and spleen samples were collected. Bacterial counts were determined and compared to control treatment with vancomycin/lysostaphin as measures of efficacy (FIG. 6).

Structure (SMILES): CN1/C(=C/C=C/c2cc(-c3ccccc3)cc(-c3ccccc3)[o+]2)C(C)(C)c2ccccc21 [BAS00127538, 2,4-diphenyl-6-[(1E)-3-[(2E)-1,3,3-trimethyl-2,3-dihydro-1H-indol-2-ylidene]prop-1-en-1-yl]-1$1^4-pyran-1-ylium]
- Clearing non-lethal doses of S. aureus 29213 (S. aureus ATCC 29213 [1]): most efficacious
- Concentration at which compound was 100% bactericidal against S. aureus [2]: 0.244 µM
- Bacterial counts in spleen and blood (S. aureus ATCC 29213 [3]; 2.5 mg/kg intraperitoneally 1 h and 4 h post-infection): significantly reduced
- Survival of animals (S. aureus ATCC 29213 [3]; 2.5 mg/kg intraperitoneally 1 h and 4 h post-infection, n=5 mice): 4 out of five
- Efficacy in vivo in a murine model for sepsis (S. aureus ATCC 29213 [3]; mouse, in vivo): proven effective
